68 sequences from the supplement of paper PMC11208160 can be followed below.
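Also: IS621 bridge recombinase in Escherichia coli cells against a fixed T5 target plasmid.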

The data set is described as follows: recombinant UMI read abundance after kanamycin selection (control-corrected) (log10(CPM+1)); higher = more efficient recombination; extreme values may be limits of the assay; sequences stand for … in AGTGCAGAGAAAATCGGCCAGTTTTCTCTGCCTGCAGTCCGCATGCCGTGGGACCCCTTGGGTTCTAACCTGTTGCCTAGATTTATGCAGCGGACTGCCTTTCTCCCAAAGTGATAAACCGG…AGGTTGGTTTCACT; site = the 11-nt donor. In a few lines:
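In Escherichia coli, a pool of donor and donor-binding-loop pairs, each with a 12-nt UMI, was tested for the IS621 bridge recombinase. Plating was on IPTG (0.07 mM) plus kanamycin, or without selection, in two replicates. Recombinant UMIs were amplified by PCR across the donor–target junction and sequenced, and counts were reported as log10(CPM+1) after averaging and control-derived scaling.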
With “CGTTGGTCATGGACCGGTTTTCCCGGTAATCCGTATTTGCA (site CGTTGGTCTTG)”, the “recombinant UMI read abundance (log10)” value was 1.29. “CGTTTCGCATGGACCGGTTTTCCCGGTAATCCGTATTTGGA (site CGTTTCGCTTC)”: the “recombinant UMI read abundance (log10)” value stood at 0.0198. Under “CGTTTGGCATGGACCGGTTTTCCCGGTAATCCGTATTTGGT (site CGTTTGGCTAA)” stands 0.0435; under “CGTTTGGCATGGACCGGTTTTCCCGGTAATCCGTATTTGGT (site CGTTTGGCTAC)”, 1.31. Turning to “CGTTTGGCATGGACCGGTTTTCCCGGTAATCCGTATTTGGT (site CGTTTGGCTAG)”, the “recombinant UMI read abundance (log10)” value came out at 0.00668. In the case of “CGTTTGGCATGGACCGGTTTTCCCGGTAATCCGTATTTGGT (site CGTTTGGCTAT)” it was 0.959; in that of “CGTTTGGCATGGACCGGTTTTCCCGGTAATCCGTATTTGTT (site CGTTTGGCTAA)”, 0.693; in that of “CGTTTGGCATGGACCGGTTTTCCCGGTAATCCGTATTTGTT (site CGTTTGGCTAC)”, 0.0131. Consider “CGTTTGGCATGGACCGGTTTTCCCGGTAATCCGTATTTGTT (site CGTTTGGCTAG)”, for which the “recombinant UMI read abundance (log10)” value came to 0.989. For the sequence “CGTTTGGCATGGACCGGTTTTCCCGGTAATCCGTATTTGTT (site CGTTTGGCTAT)”, the “recombinant UMI read abundance (log10)” value was determined as 0.033.

“CGTTTGTCATGGACCGGTTTTCCCGGTAATCCGTATTTGCT (site CGTTTGACTAG)”: the “recombinant UMI read abundance (log10)” value was determined as 0. Regarding “CGTTTGTCATGGACCGGTTTTCCCGGTAATCCGTATTTGCT (site CGTTTGCCTAG)”, the “recombinant UMI read abundance (log10)” value worked out at 0.

Take “CGTTTGTCATGGACCGGTTTTCCCGGTAATCCGTATTTGCT (site CGTTTGGCTAG)”: the “recombinant UMI read abundance (log10)” value was found to be 0. Take “CGTTTGTCATGGACCGGTTTTCCCGGTAATCCGTATTTGCT (site CGTTTGTCTAG)”: the “recombinant UMI read abundance (log10)” value worked out at 1.92. In the case of “CGTTTTGCATGGACCGGTTTTCCCGGTAATCCGTATTTGCT (site CGTTTAGCTAG)” it was 0; in that of “CGTTTTGCATGGACCGGTTTTCCCGGTAATCCGTATTTGCT (site CGTTTCGCTAG)”, 0; in that of “CGTTTTGCATGGACCGGTTTTCCCGGTAATCCGTATTTGCT (site CGTTTGGCTAG)”, 0. Consider “CGTTTTGCATGGACCGGTTTTCCCGGTAATCCGTATTTGCT (site CGTTTTGCTAG)”, for which the “recombinant UMI read abundance (log10)” value amounted to 0.543. Under “CTAAAAGCATGGACCGGTTTTCCCGGTAATCCGTATTTGGC (site CTAAAAGCTGC)” stands 0. Under “CTAAAATCATGGACCGGTTTTCCCGGTAATCCGTATTTGAC (site CTAAAATCTGT)” stands 2.03; under “CTAAAATCATGGACCGGTTTTCCCGGTAATCCGTATTTGAC (site CTAGTATCTGT)”, 0.0803; under “CTAAGAACATGGACCGGTTTTCCCGGTAATCCGTATTTGAA (site CTAAGAACTTT)”, 2.44. Under “CTAAGGCCATGGACCGGTTTTCCCGGTAATCCGTATTTGAC (site ATAAGGCCTGT)” stands 0; under “CTAAGGCCATGGACCGGTTTTCCCGGTAATCCGTATTTGAC (site CTAAGGCCTGT)”, 0.577. Consider “CTAAGGCCATGGACCGGTTTTCCCGGTAATCCGTATTTGAC (site GTAAGGCCTGT)”, for which the “recombinant UMI read abundance (log10)” value worked out at 0. In the case of “CTAAGGCCATGGACCGGTTTTCCCGGTAATCCGTATTTGAC (site TTAAGGCCTGT)” it was 0; in that of “CTAATAACATGGACCGGTTTTCCCGGTAATCCGTATTTGGA (site CTAATAACTTC)”, 2.05. Under “CTAATAACATGGACCGGTTTTCCCGGTAATCCGTATTTGGA (site CTACTAACTTC)” stands 0.337; under “CTAATAACATGGACCGGTTTTCCCGGTAATCCGTATTTGGA (site CTAGTAACTTC)”, 0.0598; under “CTAATAACATGGACCGGTTTTCCCGGTAATCCGTATTTGGA (site CTATTAACTTC)”, 1.14. Under “CTAATTACATGGACCGGTTTTCCCGGTAATCCGTATTTGTG (site CTAATTACTCA)” stands 0.859; under “CTACCGTCATGGACCGGTTTTCCCGGTAATCCGTATTTGGG (site CTACCGTCTCC)”, 0.901; under “CTACCTACATGGACCGGTTTTCCCGGTAATCCGTATTTGAG (site CTACCTACTCT)”, 1.04. On to “CTACCTACATGGACCGGTTTTCCCGGTAATCCGTATTTGAG (site CTCCCTACTCT)”, for which the “recombinant UMI read abundance (log10)” value came to 0.0123.

In the case of “CTACCTACATGGACCGGTTTTCCCGGTAATCCGTATTTGAG (site CTGCCTACTCT)”, the “recombinant UMI read abundance (log10)” value was found to be 0.00249. Under “CTACCTACATGGACCGGTTTTCCCGGTAATCCGTATTTGAG (site CTTCCTACTCT)” stands 0.0155. As to “CTACTAACATGGACCGGTTTTCCCGGTAATCCGTATTTGAA (site CTACTAACTTA)”, the “recombinant UMI read abundance (log10)” value came out at 0.909. For the sequence “CTACTAACATGGACCGGTTTTCCCGGTAATCCGTATTTGAA (site CTACTAACTTC)”, the “recombinant UMI read abundance (log10)” value is 0.291. “CTACTAACATGGACCGGTTTTCCCGGTAATCCGTATTTGAA (site CTACTAACTTG)”: the “recombinant UMI read abundance (log10)” value is 0. Under “CTACTAACATGGACCGGTTTTCCCGGTAATCCGTATTTGAA (site CTACTAACTTT)” stands 2.27. “CTACTAACATGGACCGGTTTTCCCGGTAATCCGTATTTGGA (site ATACTAACTTC)”: the “recombinant UMI read abundance (log10)” value came out at 0.387.

On to “CTACTAACATGGACCGGTTTTCCCGGTAATCCGTATTTGGA (site CAACTAACTTC)”, for which the “recombinant UMI read abundance (log10)” value came to 0.0111. With “CTACTAACATGGACCGGTTTTCCCGGTAATCCGTATTTGGA (site CCACTAACTTC)”, the “recombinant UMI read abundance (log10)” value came out at 0.567. Under “CTACTAACATGGACCGGTTTTCCCGGTAATCCGTATTTGGA (site CGACTAACTTC)” stands 0.339; under “CTACTAACATGGACCGGTTTTCCCGGTAATCCGTATTTGGA (site CTAATAACTTC)”, 1.38. Under “CTACTAACATGGACCGGTTTTCCCGGTAATCCGTATTTGGA (site CTACAAACTTC)” stands 0.00657. Under “CTACTAACATGGACCGGTTTTCCCGGTAATCCGTATTTGGA (site CTACCAACTTC)” stands 0.307; under “CTACTAACATGGACCGGTTTTCCCGGTAATCCGTATTTGGA (site CTACGAACTTC)”, 0.00735; under “CTACTAACATGGACCGGTTTTCCCGGTAATCCGTATTTGGA (site CTACTAACTAC)”, 0.0107. Turning to “CTACTAACATGGACCGGTTTTCCCGGTAATCCGTATTTGGA (site CTACTAACTCC)”, the “recombinant UMI read abundance (log10)” value was 0.516. Turning to “CTACTAACATGGACCGGTTTTCCCGGTAATCCGTATTTGGA (site CTACTAACTGC)”, the “recombinant UMI read abundance (log10)” value is 0.

Regarding “CTACTAACATGGACCGGTTTTCCCGGTAATCCGTATTTGGA (site CTACTAACTTA)”, the “recombinant UMI read abundance (log10)” value was determined as 1.4.

For “CTACTAACATGGACCGGTTTTCCCGGTAATCCGTATTTGGA (site CTACTAACTTC)”, the “recombinant UMI read abundance (log10)” value was 1.69.

Turning to “CTACTAACATGGACCGGTTTTCCCGGTAATCCGTATTTGGA (site CTACTAACTTG)”, the “recombinant UMI read abundance (log10)” value is 1.13. With “CTACTAACATGGACCGGTTTTCCCGGTAATCCGTATTTGGA (site CTACTAACTTT)”, the “recombinant UMI read abundance (log10)” value came to 1.96. On to “CTACTAACATGGACCGGTTTTCCCGGTAATCCGTATTTGGA (site CTACTACCTTC)”, for which the “recombinant UMI read abundance (log10)” value came to 0.0182. Under “CTACTAACATGGACCGGTTTTCCCGGTAATCCGTATTTGGA (site CTACTAGCTTC)” stands 0.689. In the case of “CTACTAACATGGACCGGTTTTCCCGGTAATCCGTATTTGGA (site CTACTATCTTC)” it was 1.4. Take “CTACTAACATGGACCGGTTTTCCCGGTAATCCGTATTTGGA (site CTACTCACTTC)”: the “recombinant UMI read abundance (log10)” value worked out at 0.0167. In the case of “CTACTAACATGGACCGGTTTTCCCGGTAATCCGTATTTGGA (site CTACTGACTTC)” it was 0.00472; in that of “CTACTAACATGGACCGGTTTTCCCGGTAATCCGTATTTGGA (site CTACTTACTTC)”, 0.176; in that of “CTACTAACATGGACCGGTTTTCCCGGTAATCCGTATTTGGA (site CTAGTAACTTC)”, 0.141. In the case of “CTACTAACATGGACCGGTTTTCCCGGTAATCCGTATTTGGA (site CTATTAACTTC)” it was 1.29; in that of “CTACTAACATGGACCGGTTTTCCCGGTAATCCGTATTTGGA (site CTCCTAACTTC)”, 0.373. Regarding “CTACTAACATGGACCGGTTTTCCCGGTAATCCGTATTTGGA (site CTGCTAACTTC)”, the “recombinant UMI read abundance (log10)” value came out at 0.331. In the case of “CTACTAACATGGACCGGTTTTCCCGGTAATCCGTATTTGGA (site CTTCTAACTTC)” it was 0.11; in that of “CTACTAACATGGACCGGTTTTCCCGGTAATCCGTATTTGGA (site GTACTAACTTC)”, 0.0739; in that of “CTACTAACATGGACCGGTTTTCCCGGTAATCCGTATTTGGA (site TTACTAACTTC)”, 0.417.
